No end group written: not given here.
Assays:
Format in all cases: cell-based
Propionibacterium acnes = assay: Comparative MIC study with epidermin
Source text: In a comparative study with epidermin or Propionibacterium acnes the following MIC values were obtained: […]

Bac. fragilis (Bonn) = assay: MIC in liquid BF medium
Experimental: (§1) Minimal inhibitory concentrations (MIC, Table 1) were determined in liquid BF medium of the following composition: sodium lactate 0.5%, sodium sulfate 0.5%, potassium dihydrogenphosphate 0.05%, dipotassium hydrogenphosphate 0.15%, magnesium chloride 0.02%, ammonium chloride 0.05%, glucose 1%; supplemented (per ml) with Ca-pantothenate 50 μg, folic acid 0.25 μg, niacin 50 μg, p-aminobenzoic acid 25 μg, pyridoxal hydrochloride 50 μg and riboflavin 25 μg.

Bac. fragilis (Koln) = assay: MIC in liquid BF medium
Experimental: as §1

Cb. xerosis ATCC 9755 = assay: MIC in liquid BF medium
Experimental: as §1

E. coli ATCC 11775 = assay: MIC in liquid BF medium
Experimental: as §1

Mc. luteus 15957 = assay: MIC in liquid BF medium
Experimental: as §1

Mc. luteus ATCC 9341 = assay: MIC in liquid BF medium
Experimental: as §1

[1] = tested on: Peptostreptococcus anaerobicus; assay: MIC in liquid BF medium
Experimental: as §1

Ps. aeruginosa BC 19 = assay: MIC in liquid BF medium
Experimental: as §1

Sc. faecalis ATCC 29212 = assay: MIC in liquid BF medium
Experimental: as §1

Sc. pyogenes ATCC 8668 = assay: MIC in liquid BF medium
Experimental: as §1

St. aureus E 88 = assay: MIC in liquid BF medium
Experimental: as §1

St. aureus SG 511 = assay: MIC in liquid BF medium
Experimental: as §1

[2] = tested on: St. epidermidis ATCC 12228; assay: MIC in liquid BF medium
Experimental: as §1

St. pneumoniae ATCC 6302 = assay: MIC in liquid BF medium
Experimental: as §1

Substance | MIC (Propionibacterium acnes) | MIC (Bac. fragilis (Bonn)) | MIC (Bac. fragilis (Koln)) | MIC (Cb. xerosis ATCC 9755) | MIC (E. coli ATCC 11775) | MIC (Mc. luteus 15957) | MIC (Mc. luteus ATCC 9341) | MIC [1] | MIC (Ps. aeruginosa BC 19) | MIC (Sc. faecalis ATCC 29212) | MIC (Sc. pyogenes ATCC 8668) | MIC (St. aureus E 88) | MIC (St. aureus SG 511) | MIC [2] | MIC (St. pneumoniae ATCC 6302)
Epidermin (IASKFICTPGCAKTGSFNSYCC; cysteine pairing not given here; also: lantibiotic: post-translational modifications not placed; UniProt P08136 31-52, looked up) [known polycyclic lanthionine peptide antibiotic obtained by cultivating a strain of Staphylococcus epidermis; differs from gallidermin by one amino acid, reference compound] | 0.25 µg/mL |  |  |  |  |  |  |  |  |  |  |  |  |  | 
Gallidermin (IASKFLCTPGCAKTGSFNSYCC; cysteine pairing not given here; also: lantibiotic: post-translational modifications not placed; UniProt P21838 31-52, looked up) [polycyclic lanthionine peptide antibiotic produced by cultivation of Staphylococcus gallinarum (F16/P57) Tu 3928 (DSM 4616)] | 0.125 µg/mL | 128 µg/mL | 128 µg/mL | 1 µg/mL | 128 µg/mL | 0.5 µg/mL | 0.25 µg/mL | 0.5 µg/mL | 128 µg/mL | 64 µg/mL | 1 µg/mL | 8 µg/mL | 4 µg/mL | 4 µg/mL | 4 µg/mL

Reference: patent US5231013A, “Polycyclic peptide antibiotic gallidermin” (priority 1988, dated 1993)
